Converted amounts (≈) assume the structure as drawn. Where two headings read alike, the source gives them in different places.
Tests used:
[1] = system: human myeloid leukaemia HL-60 cells; assay: Toxicity assay (resazurin, 72 h) on HL-60 cells; format: cell-based; conditions: for MIC: determined microscopically, mean of three experiments; for GI50: Homo sapiens
Protocol: (§1) Bloodstream forms of T. brucei (clone 427-221a) and human myeloid leukaemia HL-60 cells were grown in Baltz medium and RPMI medium, respectively. Both culture media were supplemented with 16.7 % (v/v) heat-inactivated foetal calf serum. All cultures were maintained in a humidified atmosphere containing 5 % CO2 at 37 °C.
(§2) Cells were seeded in 96-well plates in a final volume of 200 μl of their respective culture medium containing 10-fold serial dilutions of ionophore derivatives (10^-4 to 10^-10 M) and 1 % DMSO. Wells containing medium and 1 % DMSO served as controls. The initial cell densities were 1 × 10^4/ml for T. brucei and 1 × 10^5/ml for HL-60 cells. After 24 h incubation at 37 °C in a humidified atmosphere containing 5 % CO2, 20 μl of a 0.44 mM resazurin solution prepared in PBS was added and the cells were incubated for a further 48 h so that the total incubation time was 72 h. Thereafter, the plates were read on a microplate reader using a test wavelength of 570 nm and a reference wavelength of 630 nm. The 50 % growth inhibition (GI50) value, i.e. the concentration of a compound necessary to reduce the growth rate of cells by 50 % compared to the control was determined by linear interpolation according to the method described in [22]. The minimum inhibitory concentration (MIC) values, i.e. the concentration of the drug at which all trypanosome and human cells were killed, was determined microscopically. Each compound was independently tested three times.

[2] = system: Bloodstream forms of T. brucei (clone 427-221a); assay: Toxicity assay (resazurin, 72 h) on bloodstream forms of T. brucei; format: cell-based, Trypanosoma brucei; conditions: for Selectivity GI50 ratio: GI50(HL-60)/GI50(T. brucei); for Selectivity MIC ratio: MIC(HL-60)/MIC(T. brucei); for GI50 / MIC: 72 h; for MIC: concentration at which all cells were killed, determined microscopically, mean of three experiments
Protocol: as §1, §2

[3] = system: bloodstream forms of T. brucei; assay: Measurement of changes in cell volume by light scattering; format: cell-based, Trypanosoma brucei; conditions: 100 μM; 5 × 10^7 cells/ml; measured every 15 min; decrease in absorbance = increase in cell volume
Protocol: Change in cell volume was determined by light scattering as previously described. In brief, bloodstream forms of T. brucei were seeded at a density of 5 × 10^7 cells/ml in 96-well plates in a final volume of 200 μl culture medium containing 100 μM of salinomycin or the salonimycin derivatives SAL-E7 or SAL-AM2 and 1 % DMSO. Absorbance of the cultures was measured at 490 nm every 15 min. A decrease in absorbance corresponded to an increase in cell volume. The experiment was repeated three times.
Change in cell volume can be measured by light scattering at 450–550 nm whereby a decrease in absorbance indicates swelling of cells. In order to be able to record measurable absorbance changes, a high cell density is required. […] However, the derivatives caused a slightly faster swelling of the cells than salinomyicn. […] During further incubation, trypanosomes increased their cell volume but cell swelling was much slower and much less. […] However, it seems that the transport efficiency determines the trypanocidal potency of salinomycin derivatives.
Fig. 3 Effect of salinomycin derivatives on the cell volume of bloodstream forms of T. brucei. […] Every 15 min, the absorbance at 490 nm was measured. […] Note that a decrease in absorbance corresponds to an increase in cell volume

[4] = system: Bloodstream forms of T. brucei (clone 427-221a); set-up: method as in PMID 23517602; conditions: human cells vs bloodstream forms of T. brucei; cited from earlier work
[5] = system: human nasal mucosa cells; set-up: method as in PMID 23517602, PMID 25769976; conditions: read-out: 50 % effective concentration (cytotoxicity); cited from earlier work
[6] = system: human peripheral blood mononuclear cells; set-up: method as in PMID 23517602, PMID 25769976; conditions: read-out: 50 % effective concentration (cytotoxicity); cited from earlier work
[7] = Trypanosoma brucei, T. brucei bloodstream forms
[8] = HL-60 cells, 72 h, resazurin, mean ± SD of three experiments, read-out: GI50
[9] = Trypanosoma brucei, T. brucei bloodstream forms, read-out: MIC
[10] = Trypanosoma brucei, T. brucei bloodstream forms, resazurin, mean ± SD of three experiments, read-out: GI50

Row | SMILES | MIC ([1]; HL-60 cells, 72 h) | GI50 ([1]; HL-60, 72 h) | Selectivity GI50 ratio [2] | Selectivity MIC ratio [2] | GI50 ([2]; Trypanosoma brucei) | MIC [2, 7] | GI50 [1, 8] | MIC [2, 9] | GI50 [2, 10] | Effect on cell volume (absorbance at 490 nm) [3] | MIC ([2]; T. brucei bloodstream forms) | MIC ([2]; T. brucei bloodstream forms, listed as salinomycin n-butyl amide) | MIC ([2]; T. brucei bloodstream forms, read-out: MIC) | selectivity (cytotoxic/trypanocidal ratio) [4] | EC50 [5] | EC50 [6]
1 | CCC1(C2OC(C3OC(O)(CO)C(C)CC3C)CC2C)CCC(C2(C)CCC3(CC(O)C(C)C(C(C)C(OC)C(C)C(=O)OC)O3)O2)O1 (centres unmarked) [MON-E1] | 100 µM (≈ 68.5 µg/mL) | 34.1 ± 2.2 µM | 11.1 | 10 | 3.06 ± 0.06 µM | 10 µM (≈ 6.85 µg/mL) | – | – | – | – | – | – | – | – | – | –
2 | CCC1(C2OC(C3OC(O)(CO)C(C)CC3C)CC2C)CCC(C2(C)CCC3(CC(O)C(C)C(C(C)C(OC)C(C)C(=O)OCCO)O3)O2)O1 (centres unmarked) [MON-E2] | 100 µM (≈ 71.5 µg/mL) | 25.3 ± 5 µM | 9.2 | 10 | 2.76 ± 0.1 µM | 10 µM (≈ 7.15 µg/mL) | – | – | – | – | – | – | – | – | – | –
3 | CCC1(C2OC(C3OC(O)(CO)C(C)CC3C)CC2C)CCC(C2(C)CCC3(CC(O)C(C)C(C(C)C(OC)C(C)C(=O)OCCOCCOC)O3)O2)O1 (centres unmarked) [MON-E3] | 100 µM (≈ 77.3 µg/mL) | 20.3 ± 3.1 µM | 12.1 | 10 | 1.68 ± 0.56 µM | 10 µM (≈ 7.73 µg/mL) | – | – | – | – | – | – | – | – | – | –
4 | C=CCNC(=O)OCC1(O)OC(C2CC(C)C(C3(CC)CCC(C4(C)CCC5(CC(O)C(C)C(C(C)C(OC)C(C)C(=O)O)O5)O4)O3)O2)C(C)CC1C (centres unmarked) [MON-UR1] | 100 µM (≈ 75.4 µg/mL) | 23.3 ± 6.6 µM | 75 | 100 | 0.31 ± 0.06 µM | 1 µM (≈ 0.754 µg/mL) | – | – | – | – | – | – | – | – | – | –
5 | CC[C@@]1([C@@H]2O[C@@H]([C@H]3O[C@@](O)(CO)[C@H](C)C[C@@H]3C)C[C@@H]2C)CC[C@H]([C@]2(C)CC[C@]3(C[C@H](O)[C@@H](C)[C@@H]([C@@H](C)[C@@H](OC)[C@H](C)C(=O)O)O3)O2)O1 [Monensin, monensin] | 10 µM (≈ 6.71 µg/mL) | – | 51 | 100 | – | – | 1.48 ± 0.56 µM | 0.1 µM (≈ 0.0671 µg/mL) | 0.029 ± 0.002 µM | – | – | – | – | – | – | –
6 | C=CCNC(=O)C(CC)C1CCC(C)C(C(C)C(O)C(C)C(=O)C(CC)C2OC3(C=CC(O)C4(CCC(C)(C5CCC(O)(CC)C(C)O5)O4)O3)C(C)CC2C)O1 (centres unmarked) [SAL-AM1] | 100 µM (≈ 79 µg/mL) | 38.9 ± 3.2 µM | 12.0 | 10 | 3.23 ± 0.21 µM | 10 µM (≈ 7.9 µg/mL) | – | – | – | – | – | – | – | – | – | –
7 | CCCCNC(=O)C(CC)C1CCC(C)C(C(C)C(O)C(C)C(=O)C(CC)C2OC3(C=CC(O)C4(CCC(C)(C5CCC(O)(CC)C(C)O5)O4)O3)C(C)CC2C)O1 (centres unmarked) [SAL-AM2, salinomycin n-butyl amide] | 100 µM (≈ 80.6 µg/mL) | 14.5 ± 1.3 µM | greater than 250 | – | 0.04 ± 0.007 µM | – | – | – | – | cell swelling similar to parasites treated with salinomycin | 0.1 to 1 µM | below 1 μM | 0.1 µM (≈ 0.0806 µg/mL) | – | – | –
8 | CCC(C(=O)NCc1ccccc1)C1CCC(C)C(C(C)C(O)C(C)C(=O)C(CC)C2OC3(C=CC(O)C4(CCC(C)(C5CCC(O)(CC)C(C)O5)O4)O3)C(C)CC2C)O1 (centres unmarked) [SAL-AM3] | 100 µM (≈ 84 µg/mL) | 7.92 ± 1.95 µM | 2.7 | 10 | 2.94 ± 0.2 µM | 10 µM (≈ 8.4 µg/mL) | – | – | – | – | – | – | – | – | – | –
9 | CCC(C(=O)NCCc1c[nH]c2ccccc12)C1CCC(C)C(C(C)C(O)C(C)C(=O)C(CC)C2OC3(C=CC(O)C4(CCC(C)(C5CCC(O)(CC)C(C)O5)O4)O3)C(C)CC2C)O1 (centres unmarked) [SAL-AM4] | 100 µM (≈ 89.3 µg/mL) | 24.5 ± 3.7 µM | 9.1 | 10 | 2.69 ± 0.51 µM | 10 µM (≈ 8.93 µg/mL) | – | – | – | – | – | – | – | – | – | –
10 | CCC(C(=O)NCCc1ccc(F)cc1)C1CCC(C)C(C(C)C(O)C(C)C(=O)C(CC)C2OC3(C=CC(O)C4(CCC(C)(C5CCC(O)(CC)C(C)O5)O4)O3)C(C)CC2C)O1 (centres unmarked) [SAL-AM5] | 100 µM (≈ 87.2 µg/mL) | 39.2 ± 1.6 µM | 14.6 | 10 | 2.69 ± 0.2 µM | 10 µM (≈ 8.72 µg/mL) | – | – | – | – | – | – | – | – | – | –
11 | CCC(C(=O)OC)C1CCC(C)C(C(C)C(O)C(C)C(=O)C(CC)C2OC3(C=CC(O)C4(CCC(C)(C5CCC(O)(CC)C(C)O5)O4)O3)C(C)CC2C)O1 (centres unmarked) [SAL-E1] | 100 µM (≈ 76.5 µg/mL) | 35.5 ± 2.4 µM | 11.4 | 10 | 3.08 ± 0.18 µM | 10 µM (≈ 7.65 µg/mL) | – | – | – | – | – | – | – | – | – | –
12 | CCC(C(=O)OCCO)C1CCC(C)C(C(C)C(O)C(C)C(=O)C(CC)C2OC3(C=CC(O)C4(CCC(C)(C5CCC(O)(CC)C(C)O5)O4)O3)C(C)CC2C)O1 (centres unmarked) [SAL-E2] | 100 µM (≈ 79.5 µg/mL) | 34.6 ± 1.9 µM | 10.6 | 10 | 3.25 ± 0.26 µM | 10 µM (≈ 7.95 µg/mL) | – | – | – | – | – | – | – | – | – | –
13 | C=CCOC(=O)C(CC)C1CCC(C)C(C(C)C(O)C(C)C(=O)C(CC)C2OC3(C=CC(O)C4(CCC(C)(C5CCC(O)(CC)C(C)O5)O4)O3)C(C)CC2C)O1 (centres unmarked) [SAL-E3] | 100 µM (≈ 79.1 µg/mL) | 33.8 ± 3.5 µM | 10.9 | 10 | 3.1 ± 0.21 µM | 10 µM (≈ 7.91 µg/mL) | – | – | – | – | – | – | – | – | – | –
14 | CCCCOC(=O)C(CC)C1CCC(C)C(C(C)C(O)C(C)C(=O)C(CC)C2OC3(C=CC(O)C4(CCC(C)(C5CCC(O)(CC)C(C)O5)O4)O3)C(C)CC2C)O1 (centres unmarked) [SAL-E4] | 100 µM (≈ 80.7 µg/mL) | 32.9 ± 2.5 µM | 10.5 | 10 | 3.12 ± 0.08 µM | 10 µM (≈ 8.07 µg/mL) | – | – | – | – | – | – | – | – | – | –
15 | CCC(C(=O)OCc1ccccc1)C1CCC(C)C(C(C)C(O)C(C)C(=O)C(CC)C2OC3(C=CC(O)C4(CCC(C)(C5CCC(O)(CC)C(C)O5)O4)O3)C(C)CC2C)O1 (centres unmarked) [SAL-E5] | 100 µM (≈ 84.1 µg/mL) | 38.4 ± 4.2 µM | – | 10 | 3.21 ± 0.02 µM | 10 µM (≈ 8.41 µg/mL) | – | – | – | – | – | – | – | – | – | –
16 | CC[C@@H](C(=O)[C@@H](C)[C@@H](O)[C@H](C)[C@@H]1O[C@@H]([C@@H](CC)C(=O)O)CC[C@@H]1C)[C@H]1O[C@]2(C=C[C@@H](O)[C@]3(CC[C@@](C)([C@H]4CC[C@](O)(CC)[C@H](C)O4)O3)O2)[C@H](C)C[C@@H]1C [Salinomycin, salinomycin] | 1 µM (≈ 0.751 µg/mL) | 0.44 ± 0.21 µM | 2.4 | 1 | 0.18 ± 0.06 µM | 1 µM (≈ 0.751 µg/mL) | – | – | – | continued to swell until the end of experiment | – | – | – | < 100 | 11 µM | 30 µM
17 | Cc1ccc(C(=O)Nc2ccc(S(=O)(=O)O)c3cc(S(=O)(=O)O)cc(S(=O)(=O)O)c23)cc1NC(=O)c1cccc(NC(=O)Nc2cccc(C(=O)Nc3cc(C(=O)Nc4ccc(S(=O)(=O)O)c5cc(S(=O)(=O)O)cc(S(=O)(=O)O)c45)ccc3C)c2)c1 [Suramin, suramin, reference compound] | > 100 µM | – | > 2857 | > 1000 | – | – | > 100 µM | 0.1 µM (≈ 0.13 µg/mL) | 0.035 ± 0.002 µM | – | – | – | – | – | – | –

Reference: paper PMC4972190, “In vitro activity of salinomycin and monensin derivatives against Trypanosoma brucei” (Parasites & Vectors, 2016)
